Measured values from ChEMBL document CHEMBL1154058, “Identification of novel serotonin 2C receptor ligands by sequential virtual screening” (Bioorg Med Chem, 2009).

molecular target: T1, 5-hydroxytryptamine receptor 2C (Homo sapiens, UniProt P28335); test: Displacement of [3H]Mesulergine from human recombinant serotonin 5-HT2C expressed in CHO-K1 cells; format: cell-based
T1 sequence (P28335 whole entry): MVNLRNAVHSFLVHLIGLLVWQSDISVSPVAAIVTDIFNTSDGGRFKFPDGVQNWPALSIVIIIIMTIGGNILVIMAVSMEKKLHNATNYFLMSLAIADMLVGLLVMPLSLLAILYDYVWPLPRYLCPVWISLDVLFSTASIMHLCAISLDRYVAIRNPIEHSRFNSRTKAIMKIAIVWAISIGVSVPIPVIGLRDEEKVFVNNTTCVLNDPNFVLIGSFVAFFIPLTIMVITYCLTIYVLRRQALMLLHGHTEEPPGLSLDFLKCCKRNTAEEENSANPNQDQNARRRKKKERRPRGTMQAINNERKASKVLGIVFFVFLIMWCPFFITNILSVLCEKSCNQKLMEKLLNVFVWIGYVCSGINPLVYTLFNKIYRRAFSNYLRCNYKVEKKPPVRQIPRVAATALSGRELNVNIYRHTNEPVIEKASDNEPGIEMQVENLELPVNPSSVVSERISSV

SMILES	IC50 [µM]
CCOC(=O)c1c(C)oc2ncnc(NCCN3CCOCC3)c12	> 10
CC1CCCCN1CCNC(=O)c1noc2c1CCc1sccc1-2 (configuration not stated)	> 10
Cc1nnc(SCc2cc(=O)n3nc(C4CC4)sc3n2)[nH]1	> 10
CCc1nnc2c(NCCC3=CCCCC3)nc3ccccc3n12	> 10
Cc1cccc(CN2CCNC(=O)C2CC(=O)O)c1 (configuration not stated)	> 10
CCN(CC)CCn1c(NCc2ccncc2)nc2ccccc21	> 10
Cc1noc2ncnc(NCCN3CCOCC3)c12	> 10
Cc1ccc(CCNc2nc3ccc(C)cc3n3nnnc23)cc1	> 10
Cc1noc(C(=O)NCCN2CCOCC2)c1Cl	> 10
Cc1ccccc1NC(=O)N1CCN2CCCCC2C1 (configuration not stated)	> 10
CCc1ccccc1NC(=O)CC1NCCNC1=O (configuration not stated)	> 10
CN(C)CCNC(=O)c1nc(-c2cccnc2)no1	> 10
COc1cc2c(cc1OC)C1CCCN1C(C)(C)C2 (configuration not stated)	> 10
Cn1c(=O)n(C)c2cc(CNCCN3CCOCC3)ccc21	> 10
Cc1ccc(NC(=O)N2CCN3CCCCC3C2)cc1C (configuration not stated)	> 10
CCn1ncc(C2=NOC(C(=O)NCCN3CCOCC3)C2)c1C (configuration not stated)	> 10
Cc1ccc(C2=NC3(CCNCC3)NC2=O)cc1C	> 10
Cc1cc(C(=O)NCCN2CCOCC2)on1	> 10
CN1CCN(CCNC(=O)c2cc3ccc4cccnc4c3[nH]2)CC1	> 10

Continued, values first:

IC50 [µM]	SMILES
5.63	CCN1Cc2cccc(CNc3ccc(C)c(F)c3)c2C1
5.29	CC(=O)Nc1c(C(=O)N2CCN(C)CC2)oc2ccccc12
8.93	Cc1ccc2onc(CNC(=O)N3CCN(C)CC3)c2c1
> 10	CCCNc1nc(Nc2ccccc2)c2cnn(C)c2n1
2	CC(=O)N(CCN(C)C)c1nc2c(F)cccc2s1
> 10	Cn1ncc2c(Nc3ccc(F)cc3)nc(NCCN3CCOCC3)nc21
0.424	CN(C)CCNC(=O)c1cc2ccccc2[nH]1
> 10	Cn1ncc2c(Nc3ccc(F)cc3)nc(NCCCO)nc21
> 10	CCNc1nc(Nc2ccc(F)cc2)c2cnn(C)c2n1
0.589	COC(=O)c1cnn2c(O)nc(C3CCNCC3)nc12
> 10	C=CCNc1nc(Nc2ccc(F)cc2)c2cnn(C)c2n1
> 10	CCNc1nc(Nc2ccccc2)c2cnn(C)c2n1
> 10	COCCCNc1nc(Nc2ccc(F)cc2)c2cnn(C)c2n1
> 10	CCCNc1nc2ccc(C)cc2n2nnnc12
0.222	CN(C)CCNC(=O)c1ccc(-n2ccc3ccccc32)s1
5.11	CCc1nnc2c(NC)nc3ccccc3n12
9.22	CCC(=O)Nc1nn2c(-c3cccc(C)c3)nnc2s1
> 10	Cn1ncc2c(Nc3ccc(F)cc3)nc(NC3CCCC3)nc21
4.17	CCCCN(C)CCNc1nc(C)nc2oc(C)c(C(=O)OCC)c12
> 10	COCCNc1nc(Nc2ccc(F)cc2)c2cnn(C)c2n1
> 10	COc1ccc2c3c([nH]c2c1)[C@@](C)(C(=O)O)NCC3
> 10	Cc1cccc(C(=O)Nc2nn3c(-c4ccccc4C)nnc3s2)c1
4.48	CCOC(=O)C1=CCc2nc(C)nc(NCCN(C)C)c21
2.05	CCOC(=O)c1noc2ncnc(N3CCN(C)CC3)c12
2.73	CC(=O)N(CCN(C)C)c1nc2cc3c(cc2s1)OCO3

molecular target: T1, 5-hydroxytryptamine receptor 2C; test: Binding affinity to 5-HT2C receptor

SMILES	Ki [µM]
C[C@@H]1CN(c2ccc(C(F)(F)F)c3ccoc23)CCN1	0.0024
O=C1Nc2cc(Cl)c(Cl)cc2N2CCNC[C@H]12	0.0033
Clc1cccc(COc2cncc(N3CCNCC3)n2)c1	0.001
C[C@@H]1CNC[C@H]2Cc3ccc(COCC4CC4)nc3N21	0.004
Fc1cccc(F)c1-c1cc2c3c(c1)[C@H]1CNCC[C@H]1N3CCCS2	0.0052
Clc1ccc(Cl)c(-c2ccnc(N3C[C@@H]4CCN[C@@H]4C3)n2)c1	> 20
C[C@@H](N)Cn1ccc2cc(F)c(Cl)cc21	0.001
CCc1cc2c(ccc3cnn(C[C@@H](C)N)c32)o1	0.00089
